Assay results: patent US20160067311A1, “USE OF ELSIGLUTIDE TO TREAT GASTROINTESTINAL MUCOSITIS INCLUDING CHEMOTHERAPY-INDUCED DIARRHEA” (Helsinn Healthcare SA, priority 2014, published 2016)
Peptide text beside a SMILES is read from it.

Experiments:
[1] = human, in vivo
Method: (§1) Data on human exposure to elsiglutide generated so far originate from three clinical trials, one performed in healthy subjects (study 06-013) and two in cancer patients (TIDE-09-04, TIDE-11-10). The main objective of the first two studies was the evaluation of the safety, tolerability and maximum tolerated dose (MTD) of ascending elsiglutide doses administered as s.c. (both studies) and i.v. (only study 06-013) bolus injections. In study 06-013 elsiglutide was administered as single i.v. or s.c. bolus, while in study TIDE-09-04 each dose was administered as s.c. bolus on 4 consecutive days. Study TIDE-11-10 was a phase II proof of concept study that mainly evaluated the efficacy of elsiglutide administered as 24 mg daily s.c. bolus injections for 4 consecutive days in preventing CID in patients with colorectal cancer receiving 5-FU based chemotherapy (FOLFOX4 or FOLFIRI regimen). The secondary objectives of all three studies included the evaluation of the pharmacokinetics of elsiglutide and its major metabolites in humans.

[2] = Clinical pharmacokinetics of elsiglutide and its metabolites (studies 06-013, TIDE-09-04, TIDE-11-10)
Method: as §1

cancer patients = conditions: patients treated with the drug; cited from earlier work

SMILES	exposure to metabolite relative to exposure to the parent ZP1846 (elsiglutide) [1]	AUC of ZP2242 relative to that of ZP2712 ([2]; human, plasma)	half-life ([2]; human, plasma)	dose dependence of pharmacokinetics (Cmax and AUC increases proportional to dose) ([2]; study TIDE-09-04, s.c. on 4 consecutive days)	patients in whom diarrhea occurs (cancer patients)
CC[C@H](C)[C@H](NC(=O)[C@H](CC(C)C)NC(=O)[C@H](Cc1c[nH]c2ccccc12)NC(=O)[C@H](C)NC(=O)[C@@H](NC(=O)[C@H](Cc1ccccc1)NC(=O)[C@H](CC(=O)O)NC(=O)[C@H](CCCNC(=N)N)NC(=O)[C@H](C)NC(=O)[C@H](C)NC(=O)[C@H](CC(C)C)NC(=O)[C@H](C)NC(=O)[C@H](CC(=O)O)NC(=O)[C@H](CC(C)C)NC(=O)[C@@H](NC(=O)[C@@H](NC(=O)[C@H](CO)NC(=O)[C@H](CC(C)C)NC(=O)[C@H](CCC(=O)O)NC(=O)[C@H](CO)NC(=O)[C@H](CO)NC(=O)[C@H](Cc1ccccc1)NC(=O)[C@H](CO)NC(=O)CNC(=O)[C@H](CCC(=O)O)NC(=O)CNC(=O)[C@@H](N)Cc1c[nH]cn1)[C@@H](C)O)[C@@H](C)CC)[C@@H](C)CC)C(=O)N[C@@H](C)C(=O)N[C@H](C(=O)N[C@@H](CCCCN)C(=O)N[C@H](C(=O)N[C@H](C(=O)N[C@@H](CC(=O)O)C(=O)N[C@@H](CCCCN)C(=O)O)[C@@H](C)O)[C@@H](C)CC)[C@@H](C)O [ZP2242] (H-HGEGSFSSELSTILDALAARDFIAWLIATKITDK-OH; N-terminus assumed)	> 25 fold	at least 10 times	6 to 9 h	dose independent	–
CS(=O)(=O)CCNCc1ccc(-c2ccc3ncnc(Nc4ccc(OCc5cccc(F)c5)c(Cl)c4)c3c2)o1 [lapatinib]	–	–	–	–	up to 60%
